Assay results from BindingDB's records for patent US20240208932 (Xizang Haisco Pharmaceutical, 2024).

Tests used:
Assay in all cases: CYP450 Enzyme Inhibition Assay
Cytochrome P450 1A2 = molecular target: T1, Cytochrome P450 1A2 (Homo sapiens, UniProt P05177)
T1 sequence (P05177 whole entry): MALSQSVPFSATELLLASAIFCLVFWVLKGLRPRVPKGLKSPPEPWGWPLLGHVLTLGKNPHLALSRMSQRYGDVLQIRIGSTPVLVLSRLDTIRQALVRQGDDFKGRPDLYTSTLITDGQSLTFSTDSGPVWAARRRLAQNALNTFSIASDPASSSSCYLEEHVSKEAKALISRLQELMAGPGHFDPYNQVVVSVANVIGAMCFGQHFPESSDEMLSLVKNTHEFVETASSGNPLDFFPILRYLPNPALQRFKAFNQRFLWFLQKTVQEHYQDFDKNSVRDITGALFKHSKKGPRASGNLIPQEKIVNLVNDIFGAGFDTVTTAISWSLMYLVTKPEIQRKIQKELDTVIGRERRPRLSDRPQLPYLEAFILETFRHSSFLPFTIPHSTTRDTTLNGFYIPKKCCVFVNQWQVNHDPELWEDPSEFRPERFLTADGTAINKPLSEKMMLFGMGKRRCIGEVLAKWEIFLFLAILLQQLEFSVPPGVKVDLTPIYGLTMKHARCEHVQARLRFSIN
Protocol: (§1) The purpose of this study was to evaluate the effect of the test compound on the activity of five isoenzymes (CYP1A2, CYP2C9, CYP2C19, CYP2D6 and CYP3A4) of human liver microsomal cytochrome P450 (CYP) by using an in vitro testing system. The specific probe substrates of CYP450 isoenzymes were incubated with human liver microsomes and test compounds of different concentrations, and reduced nicotinamide adenine dinucleotide phosphate (NADPH) was added to initiate the reaction. After the completion of the reaction, the sample was treated and liquid chromatography-tandem mass spectrometry (LC-MS/MS) was used to quantitatively detect metabolites produced by specific substrates, changes in CYP enzyme activity were determined, and IC50 value was calculated to evaluate the inhibitory potential of the test compound on each CYP enzyme subtype.

Cytochrome P450 2D6 = Cytochrome P450 2D6 (Homo sapiens, UniProt P10635)
Protocol: as §1

Cytochrome P450 3A4 = Cytochrome P450 3A4 (Homo sapiens, UniProt P08684)
Protocol: as §1

Cytochrome P450 2C19 = Cytochrome P450 2C19 (Homo sapiens, UniProt P33261)
Protocol: as §1

Cytochrome P450 2C9 = Cytochrome P450 2C9 (Homo sapiens, UniProt P11712)
Protocol: as §1

Sequence of Cytochrome P450 2C9 (P11712 whole entry): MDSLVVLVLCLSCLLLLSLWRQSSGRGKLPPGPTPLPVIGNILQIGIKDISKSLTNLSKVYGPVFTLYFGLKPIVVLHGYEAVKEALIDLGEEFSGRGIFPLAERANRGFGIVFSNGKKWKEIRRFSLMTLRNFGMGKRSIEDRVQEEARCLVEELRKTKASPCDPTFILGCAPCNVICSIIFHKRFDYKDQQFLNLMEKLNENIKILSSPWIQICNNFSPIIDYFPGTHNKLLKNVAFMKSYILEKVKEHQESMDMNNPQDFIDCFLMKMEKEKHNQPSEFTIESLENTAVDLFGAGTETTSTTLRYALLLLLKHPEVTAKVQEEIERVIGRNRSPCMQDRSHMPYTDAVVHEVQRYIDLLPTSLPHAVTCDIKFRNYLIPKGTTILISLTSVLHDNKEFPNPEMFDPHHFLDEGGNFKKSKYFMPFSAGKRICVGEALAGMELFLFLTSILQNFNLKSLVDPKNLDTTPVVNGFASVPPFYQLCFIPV
Sequence of Cytochrome P450 2D6 (P10635 whole entry): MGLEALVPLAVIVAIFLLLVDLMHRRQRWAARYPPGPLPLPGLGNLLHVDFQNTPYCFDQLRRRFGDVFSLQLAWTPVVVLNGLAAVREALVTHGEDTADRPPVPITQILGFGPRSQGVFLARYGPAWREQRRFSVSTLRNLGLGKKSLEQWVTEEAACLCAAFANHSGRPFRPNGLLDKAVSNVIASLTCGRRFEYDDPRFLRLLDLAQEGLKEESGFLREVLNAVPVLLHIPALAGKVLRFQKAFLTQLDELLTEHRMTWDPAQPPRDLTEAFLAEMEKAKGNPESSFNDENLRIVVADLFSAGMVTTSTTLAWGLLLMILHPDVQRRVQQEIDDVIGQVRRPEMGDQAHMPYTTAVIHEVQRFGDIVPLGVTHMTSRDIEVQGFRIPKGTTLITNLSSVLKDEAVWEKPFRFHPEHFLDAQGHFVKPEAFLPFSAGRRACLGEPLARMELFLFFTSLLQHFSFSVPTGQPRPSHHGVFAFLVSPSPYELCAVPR
Sequence of Cytochrome P450 3A4 (P08684 whole entry): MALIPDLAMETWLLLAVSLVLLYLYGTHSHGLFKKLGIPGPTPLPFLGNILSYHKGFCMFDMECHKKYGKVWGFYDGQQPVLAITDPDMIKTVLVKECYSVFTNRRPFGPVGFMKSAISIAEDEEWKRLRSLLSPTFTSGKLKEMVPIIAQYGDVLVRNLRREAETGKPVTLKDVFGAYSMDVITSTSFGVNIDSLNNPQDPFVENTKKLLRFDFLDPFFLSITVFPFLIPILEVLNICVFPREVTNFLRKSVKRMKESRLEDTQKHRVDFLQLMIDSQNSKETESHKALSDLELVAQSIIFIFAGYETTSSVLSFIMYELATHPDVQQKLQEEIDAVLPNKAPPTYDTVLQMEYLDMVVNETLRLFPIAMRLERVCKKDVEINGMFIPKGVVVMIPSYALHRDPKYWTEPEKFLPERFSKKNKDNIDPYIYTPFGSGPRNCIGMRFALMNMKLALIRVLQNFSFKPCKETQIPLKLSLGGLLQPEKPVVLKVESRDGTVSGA
Sequence of Cytochrome P450 2C19 (P33261 whole entry): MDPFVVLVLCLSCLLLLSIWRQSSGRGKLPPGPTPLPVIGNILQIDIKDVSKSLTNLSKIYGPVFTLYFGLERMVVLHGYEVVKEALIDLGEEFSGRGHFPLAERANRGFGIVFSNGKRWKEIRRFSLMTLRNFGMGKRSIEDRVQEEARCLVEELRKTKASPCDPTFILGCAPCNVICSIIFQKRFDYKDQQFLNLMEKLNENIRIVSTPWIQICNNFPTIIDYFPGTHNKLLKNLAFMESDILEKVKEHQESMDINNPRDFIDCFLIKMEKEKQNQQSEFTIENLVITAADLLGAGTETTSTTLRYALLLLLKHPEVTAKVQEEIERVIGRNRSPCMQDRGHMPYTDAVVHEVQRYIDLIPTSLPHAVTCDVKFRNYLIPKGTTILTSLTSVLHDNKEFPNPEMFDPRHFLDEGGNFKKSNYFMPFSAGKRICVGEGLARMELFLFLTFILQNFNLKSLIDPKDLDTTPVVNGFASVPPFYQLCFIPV

Molecule `C[C@@H]1Cc2c([nH]c3ccccc23)[C@H](c2c(F)cc(N[C@H]3CCN(CCCF)C3)cc2F)N1CC(F)(F)F` [WO2021228210, Compound 4] has an IC50 (Cytochrome P450 1A2) of 15.6 µM, an IC50 (Cytochrome P450 2D6) of 13.8 µM and an IC50 (Cytochrome P450 3A4) of 12.8 µM. It also gave an IC50 (Cytochrome P450 2C19) of 19.1 µM and an IC50 (Cytochrome P450 2C9) of 15.6 µM.
